Data: patent publication US8809290B2 (priority 2002, dated 2014)
No end group written: not given here.

Legend:
[1] = mouse, in vivo, iv
[2] = test system: T cell immunity to MHC class I-restricted peptides R10K and SIINFEKL; set-up: species or system BALB/c mice; C57BL/6 mice; conditions: mouse, in vivo
CD 11b+ APC = assay type: binding, C57 BL/6 mice
[3] = test system: chemokine gene-expression; set-up: species or system mice; conditions: mouse, in vivo
antibodies against hIgG = test system: antibodies against hIgG; set-up: species or system C57BL/6 mice; conditions: mouse, in vivo, iv
[4] = test system: Human THP-1 monocytic cells; assay type: binding
[5] = test system: SP2/0 cells expressing IgNP; set-up: species or system Balb/c mice; conditions: mouse, in vivo

Substance: SFERFEIFPKE [HA peptide]
- detection of epitope in the blood as function of time post-injection [1]: not detected in the periphery

Substance: Polyadenylic-Polyuridylic Acid [pA:pU]
- T cell immunity to MHC class I-restricted peptides (IFN-γ, IL-4 SFC/spleen) [2]: able to promote increased T cell immunity to different MHC class I-restricted peptides
- receptor binding on APC (competition with tagged pA:pU) (CD 11b+ APC): bind to different cellular receptors
- chemokine expression in pulmonary tissue [3]: trigger expression of a wide range of chemokines
- prevention of high zone tolerance (anti-hIgG endpoint titers) (antibodies against hIgG): largely prevent high zone tolerance
- competition of binding of tagged pA:pU to THP-1 cells [4]: able to compete out the binding of tagged pA:pU
- outcome of tumor-bearing mice [5]: succumbed to disease
